Data: patent US20130210899A1, “Method and Therapeutic for the Treatment and Regulation of Memory Formation” (The Regents of the University of California, priority 2010, published 2013)

Experiments:
HDAC2 = biological target: T1, HDAC2 (Mus musculus, UniProt P70288); experiment: Immunohistochemistry of dorsal hippocampus 2 hours after intrahippocampal infusion; type: in vivo, C57BL/6 mice; conditions: 1.25 ng/side intrahippocampal infusion
T1 construct: from tissue; host or cells: dorsal hippocampus of C57BL/6 mice
T1 sequence (P70288 whole entry, the tested form may be a part): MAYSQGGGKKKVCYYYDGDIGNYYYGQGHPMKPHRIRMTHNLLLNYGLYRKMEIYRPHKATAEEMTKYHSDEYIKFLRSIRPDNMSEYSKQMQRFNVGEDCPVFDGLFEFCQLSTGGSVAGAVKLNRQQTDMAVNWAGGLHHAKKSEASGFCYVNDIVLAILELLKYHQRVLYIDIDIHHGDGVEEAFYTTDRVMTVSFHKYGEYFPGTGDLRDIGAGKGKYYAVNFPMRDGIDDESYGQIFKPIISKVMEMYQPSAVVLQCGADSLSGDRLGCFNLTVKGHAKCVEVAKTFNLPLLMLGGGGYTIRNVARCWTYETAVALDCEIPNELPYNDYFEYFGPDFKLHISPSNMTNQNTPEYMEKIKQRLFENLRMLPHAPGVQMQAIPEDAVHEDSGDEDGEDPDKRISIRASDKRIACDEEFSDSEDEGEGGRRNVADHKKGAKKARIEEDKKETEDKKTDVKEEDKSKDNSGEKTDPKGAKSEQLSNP
Method: (§1) Two weeks after mice were infused with AAV-Cre or two hours after hippocampal infusion of the inhibitor, mice were anesthetized deeply with sodium pentobarbital (100 mg/kg, i.p.) and perfused transcardially with ice-cold PBS, pH 7.4, followed by ice-cold 4% paraformaldehyde in PBS, pH 7.4, using a peristaltic perfusion pump (Fisher Scientific). The brains were removed, postfixed overnight at 4° C., and then transferred to 30% sucrose for 48 hr at 4° C. Brains were frozen and cryocut to 20 μm coronal slices, and sections were stored in 0.1M PBS. Floating sections were rinsed in 0.1% Triton X-100 (Fisher Scientific) in PBS, rinsed in PBS, and then blocked for 1 hr at room temperature in 8% normal goat serum (NGS, Jackson ImmunoResearch Laboratories) with 0.3% Triton X-100 in PBS. Sections were rinsed in PBS and for single labeling they were incubated overnight at 4° C. in 2% NGS, 0.3% Triton X-100 in PBS with primary antibody. The sections were then rinsed in PBS and incubated for 2 hr at room temperature with goat anti-rabbit IgG-FITC secondary antibody (1:1000, Millipore Bioscience International). […]
(§2) Images were acquired and using an Olympus (BX51, Japan) microscope using a 4× or 20× objective, CCD camera (QImaging), and QCapture Pro 6.0 software (QImaging) and quantified with ImageJ software (NIH). […]

HDAC4 = experiment: as above; type: in vivo, C57BL/6 mice; conditions: 1.25 ng/side intrahippocampal infusion
Method: as §1, §2

H4K8Ac = experiment: as above; type: in vivo, C57BL/6 mice; conditions: 1.25 ng/side intrahippocampal infusion
Method: as §1, §2

neuronal morphology = experiment: DAPI staining of neuronal morphology after intrahippocampal infusion; type: in vivo, C57BL/6 mice; conditions: 1.25 ng/side intrahippocampal infusion, 2 hours
Method: as §1, with “International). Sections were rinsed again in PBS and mounted on slides using ProLong Gold antifade reagent with DAPI (Invitrogen).” for “International).”

C57BL/6J male mice [1] = experiment: Novel object recognition memory (ORM) task after subthreshold training; type: in vivo; conditions: 24 h test; for long-term memory formation vs vehicle-treated mice, ORM: 3, 10, 30 mg/kg s.c. after 3 min training; for dose-dependent effect on ORM: 3, 10, 30 mg/kg s.c.
Method: Training and testing for location-dependent object recognition memory (OLM) and novel object recognition memory (ORM) was carried out as previously described. […] The experimental apparatus was a white rectangular open field (30×23×21.5 cm).
24-h later mice were tested for memory retention (5 min) using the object recognition memory task, in which a familiar object was replaced with a novel one. A discrimination index (DI) above zero indicates a preference for the novel object.

C57BL/6J male mice [2] = experiment: Location-dependent object recognition memory (OLM) task after subthreshold training; type: in vivo; conditions: for memory for object location vs vehicle, OLM: 1.25 ng/side intrahippocampal after 3 min training
Method: Training and testing for location-dependent object recognition memory (OLM) and novel object recognition memory (ORM) was carried out as previously described. (See, e.g., Roozendaal et al., J Neurosci 30:5037-5046, 2010, the disclosure of which is incorporated herein by reference.) Prior to training, mice were handled 1-2 min for 5 days and were habituated to the experimental apparatus 3 min a day for 3 consecutive days in the absence of objects. The experimental apparatus was a white rectangular open field (30×23×21.5 cm).
(See, Stefanko et al., Proc Natl Acad Sci USA 106:9447-9452, 2009, the disclosures of which are incorporated herein by reference.) During the 24-h or 7-day retention test, mice were placed in the experimental apparatus for 5 min. For object recognition memory (ORM), one copy of the familiar object (A3) and a new object (B1) were placed in the same location as during the training trial. For location-dependent object recognition memory (OLM), one copy of the familiar object (A3) was placed in the same location as during the training trial and one copy of the familiar object (A4) was placed in the middle of the box.
(§3) All combinations and locations of objects were used in a balanced manner to reduce potential biases due to preference for particular locations or objects. All training and testing trials were videotaped and analyzed by individuals blind to the treatment condition and the genotype of subjects. A mouse was scored as exploring an object when its head was oriented toward the object within a distance of 1 cm or when the nose was touching the object. The relative exploration time was recorded and expressed by a discrimination index [DI=(tnovel−tfamiliar)/(tnovel+tfamiliar)×100].
Animals were tested for short-term memory 90 min after training.
In addition, a separate group of mice were given a 3 min training period and then a 7 day retention test.

CBP^+/+ mice = experiment: OLM task in CBP+/+ mice after intrahippocampal infusion; type: in vivo; conditions: intrahippocampal 1.25 ng/side after 3 min training, 24 h
Method: (§4) To generate a focal deletion, mice were infused with adeno associated virus expressing Cre-recombinase (AAV2/1-Cre; Penn Vector Core, University of Pennsylvania, Philadelphia, Pa.) 2 weeks prior to behavioral procedures. Mice were anesthetized with isoflurane and placed in a digital Just For Mice stereotax (Stoelting, Wood Dale, Ill.). 1.0 μl of virus was injected at a rate of 6 μl/hr via an infusion needle positioned in the dorsal CA1 area of the hippocampus (antereoposterior (AP) −2.0; mediolateral (ML) ±1.5; dorsoventral (DV) −1.5). NCoR homozygous knock-in mice (referred to as DADm mice) were generated on C57BL/6 background using homologous recombination to incorporate a single amino acid substitution (Y478A) in the NCoR deacetylase activation domain (DAD). […]
as §3, with “[DI=(tnovel−tfamiliar)/(tnovel+tfamiliar)×100]. […]” for “[DI=(tnovel−tfamiliar)/(tnovel+tfamiliar)×100].”

CBP^KIX/KIX mice = experiment: OLM task in CBP KIX/KIX mutant mice after intrahippocampal infusion; type: in vivo; conditions: intrahippocampal 1.25 ng/side after 3 min training, 24 h
Method: as §4
as §3, with “[DI=(tnovel−tfamiliar)/(tnovel+tfamiliar)×100]. […]” for “[DI=(tnovel−tfamiliar)/(tnovel+tfamiliar)×100].”

in vivo = conditions: mouse, brain, sc, 30 mg/kg
mice [3] = experiment: Extinction of cocaine conditioned place preference (CPP); type: in vivo; conditions: 10 mg/kg s.c. immediately following Posttest; Ext2 and Ext3
Method: (§5) Conditioned place preference experiments were similar to those described in Malvaez et al. (Malvaez, M., et al., Biological Psychiatry, 67, 36-43, 2010, the disclosure of which is incorporated herein by reference). Mice were briefly handled for 3 consecutive days (days 1-3). Baseline preferences were assessed by placing the animals in the three-chambered apparatus for 15 min (Pretest, day 4). Time spent in each compartment was recorded. Conditioning took place over the next 4 days with the guillotine doors closed, confining animals to a specific compartment for 30 min (days 5-8). An unbiased paradigm was used such that half of the animals were injected with cocaine (20 mg/kg, i.p.) before placement in the checkered compartment and half were injected with cocaine before placement in the white compartment (CS+). The next day, mice received 0.9% saline injection (1.0 ml/kg, i.p.) before placement in the alternate compartment (CS−). Injections were alternated for subsequent conditioning sessions. Forty-eight hours after the last conditioning session, animals had access to all 3 compartments and preference was assessed in a drug-free state (15 min, Posttest; day 10). This is also the first of the extinction sessions which occurred daily until extinction criteria were met. […]

mice [4] = experiment: Cocaine-primed reinstatement of conditioned place preference; type: in vivo; conditions: cocaine prime 10 mg/kg i.p.
Method: as §5, with “The next day, mice received 0.9% saline injection (1.0 ml/kg, i.p.) before placement in the alternate compartment (CS−). Injections were alternated for subsequent conditioning sessions.” left out, “10).” for “10). This is also the first of the extinction sessions which occurred daily until extinction criteria were met.”
In an experiment with a similar design as described above, animals were confined to a specific compartment and given cocaine (5 mg/kg, i.p.) or saline on alternating days. […] Forty-eight hours after the last conditioning session, animals had free access to all 3 compartments and preference was assessed in a drug-free state (15 min, Posttest; day 10). […]

mice [5] = experiment: Acquisition of cocaine conditioned place preference, treatment after conditioning sessions; type: in vivo; conditions: 10 mg/kg s.c. following each conditioning session; cocaine 5 mg/kg i.p.
Method: In an experiment with a similar design as described above, animals were confined to a specific compartment and given cocaine (5 mg/kg, i.p.) or saline on alternating days. Immediately following the conditioning session (30 min), mice received an injection of RGFP966 (10 mg/kg, s.c.) or vehicle and then returned to the home cage. Forty-eight hours after the last conditioning session, animals had free access to all 3 compartments and preference was assessed in a drug-free state (15 min, Posttest; day 10). CPP score indicates preference by mean±S.E.M. of time in CS+ minus CS− compartment. All groups extinguished the preference for the CS+ compartment by extinction day 6. The following day, animals received a cocaine prime (10 mg/kg, i.p.) and were placed in the test chamber (Reinstatement).
In this test, mice were conditioned with two pairings of a low dose of cocaine (5 mg/kg, i.p.) and saline. Following each conditioning session, mice received RGFP966 (10 mg/kg, s.c.) or vehicle.

SMILES | HDAC2 expression vs vehicle (HDAC2) | HDAC4 nuclear expression vs vehicle (HDAC4) | immunoreactivity for H4K8Ac vs vehicle (H4K8Ac) | neuronal morphology (DAPI staining) vs vehicle (neuronal morphology) | long-term memory formation vs vehicle-treated mice, ORM (C57BL/6J male mice [1]) | dose-dependent effect on ORM (C57BL/6J male mice [1]) | memory for object location vs vehicle, OLM (C57BL/6J male mice [2]; 24 hours) | memory for object location vs vehicle, OLM (C57BL/6J male mice [2]; 7 day retention test) | preference for the object in the novel location vs vehicle, OLM (C57BL/6J male mice [2]; 30 mg/kg s.c. post-training, 24 h retention test) | memory for novel object location vs vehicle, OLM (CBP^+/+ mice) | effect on long-term memory, OLM (CBP^KIX/KIX mice) | Cmax (in vivo) | extinction of preference for the cocaine-paired compartment (CPP score) (mice [3]) | reinstatement of preference after cocaine prime (mice [4]; 3 mg/kg received during extinction) | reinstatement of preference after cocaine prime (mice [4]; 10 mg/kg received during extinction) | effect on cocaine conditioned place preference (Posttest) (mice [5])
Cc1ccc(C(=O)NCCCCCC(=O)Nc2ccc(F)cc2N)cc1 [RGFP136, N-(6-(2-amino-4-fluorophenylamino)-6-oxohexyl)-4-methylbenzamide] | unchanged | loss of HDAC4 nuclear expression | increase | does not alter neuronal morphology | significantly enhanced | Significant dose-dependent effects | greater memory | significantly greater memory | significant preference | significantly greater memory | no effect | ~1700 nM | – | – | – | –
Nc1cc(F)ccc1NC(=O)/C=C/c1cnn(CC=Cc2ccccc2)c1 [RGFP966, (E)-N-(2-amino-4-fluorophenyl)-3-(1-cinnamyl-1H-pyrazol-4-yl)acrylamide] | – | – | – | – | significantly enhanced | lack of an observed dose effect | – | – | – | – | – | – | rapid extinction | significant preference | did not reinstate a preference | does not alter
